This note sets out measurements from patent US10730863B2, “Bridged bicyclic compounds as farnesoid X receptor modulators” (BRISTOL-MYERS SQUIBB COMPANY, priority 2017, dated 2020).

In this test the target is FXR (Homo sapiens (Human), UniProt Q96RI1). Nature of the test: FXR EC50 (FXR agonist activity reported with each example). It counts as cell-based.
Sequence of FXR (Q96RI1 262-486): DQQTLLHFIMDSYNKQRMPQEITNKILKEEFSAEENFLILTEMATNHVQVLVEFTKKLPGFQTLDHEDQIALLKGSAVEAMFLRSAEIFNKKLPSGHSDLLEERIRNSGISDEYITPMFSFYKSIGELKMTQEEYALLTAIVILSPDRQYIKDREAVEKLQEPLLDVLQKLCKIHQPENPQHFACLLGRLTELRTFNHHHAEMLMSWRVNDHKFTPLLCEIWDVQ
In general, EC50 refers to the concentration giving half of the maximal effect. Higher therefore signals lower potency in that assay. In turn, `O=C(O)c1ccc(-c2noc(C34CCC(OCc5c(-c6ccccc6OC(F)(F)F)noc5C5CC5)(CC3)CC4)n2)nc1` [Example 42] registered an EC50 of 1500 nM.

Consider `O=C(O)c1cncc(-c2noc(C34CCC(OCc5c(-c6ccccc6OC(F)(F)F)noc5C5CC5)(CC3)CC4)n2)c1` [Example 44], for which a half-maximal effect (EC50) was put at 870 nM. The result for `O=C(O)c1ccc(-c2noc(C34CCC(OCc5c(-c6ccccc6C(F)(F)F)noc5C5CC5)(CC3)CC4)n2)cn1` [Example 46] reads 2700 nM; that for `O=C(O)c1cccc(-c2noc(C34CCC(OCc5c(-c6ccccc6OC(F)(F)F)noc5C5CC5)(CC3)CC4)n2)n1` [Example 47], 550 nM.

Compound `O=C(O)c1cccc(-c2noc(C34CCC(OCc5c(-c6ccccc6C(F)(F)F)noc5C5CC5)(CC3)CC4)n2)n1` [Example 48] returned an EC50 of 2100 nM.

In turn, `O=C(O)c1cc(-c2noc(C34CCC(OCc5c(-c6ccccc6OC(F)(F)F)noc5C5CC5)(CC3)CC4)n2)ccn1` [Example 49] gave an EC50 of 1200 nM. The result for `O=C(O)c1cc(-c2noc(C34CCC(OCc5c(-c6ccccc6C(F)(F)F)noc5C5CC5)(CC3)CC4)n2)ccn1` [Example 50] reads 2100 nM; that for `O=C(O)c1cc(F)c2nc(C34CCC(OCc5c(-c6ccccc6C(F)(F)F)noc5C5CC5)(CC3)CC4)sc2c1` [Example 51], 500 nM.

In turn, `O=C(O)c1cccc(-c2nc(C34CCC(OCc5c(-c6ccccc6OC(F)(F)F)noc5C5CC5)(CC3)CC4)no2)c1` [Example 55] registered an EC50 of 250 nM.

`O=C(O)c1ccc(-c2nc(C34CCC(OCc5c(-c6ccccc6OC(F)(F)F)noc5C5CC5)(CC3)CC4)no2)cc1` [Example 57] showed an EC50 of 650 nM. The value for `O=C(O)c1cc(-c2nc(C34CCC(OCc5c(-c6ccccc6OC(F)(F)F)noc5C5CC5)(CC3)CC4)no2)ccn1` [Example 58] was 4000 nM. The value for `O=C(O)c1cc(-c2nc(C34CCC(OCc5c(-c6ccccc6C(F)(F)F)noc5C5CC5)(CC3)CC4)no2)ccn1` [Example 59] was 3800 nM. The result for `O=C(O)c1cccc(-c2nc(C34CCC(OCc5c(-c6ccccc6OC(F)(F)F)noc5C5CC5)(CC3)CC4)no2)n1` [Example 61] reads 840 nM. In turn, `O=C(O)c1ccc2nc(C34CCC(OCc5c(-c6ccccc6OC(F)(F)F)noc5C5CC5)(CC3)CC4)ncc2c1` [Example 62] registered an EC50 of 1300 nM. This EC50 lies about 1.5-fold higher than the previous one. The value for `O=C(O)c1cc(-c2noc(C34CCC(OCc5c(-c6c(Cl)cccc6Cl)noc5C5CC5)(CC3)CC4)n2)ccc1F` [Example 64, 5-(5-(4-((5-Cyclopropyl-3-(2,6-dichlorophenyl)isoxazol-4-yl)methoxy)bicyclo[2.2.2]octan-1-yl)-1,2,4-oxadiazol-3-yl)-2-fluorobenzoic acid] was 140 nM; that for `Clc1cccc(Cl)c1-c1noc(C2CC2)c1COC12CCC(c3nc4ccc(-c5nnn[nH]5)cc4s3)(CC1)CC2` [Example 66, 4-(((4-(6-(1H-tetrazol-5-yl)benzo[d]thiazol-2-yl)bicyclo[2.2.2]octan-1-yl)oxy)methyl)-5-cyclopropyl-3-(2,6-dichlorophenyl)isoxazole] was 390 nM. The result for `O=C(O)c1c(F)ccc(-c2noc(C34CCC(OCc5c(-c6c(Cl)cccc6Cl)noc5C5CC5)(CC3)CC4)n2)c1F` [Example 68, 3-(5-(4-((5-Cyclopropyl-3-(2,6-dichlorophenyl)isoxazol-4-yl)methoxy)bicyclo[2.2.2]octan-1-yl)-1,2,4-oxadiazol-3-yl)-2,6-difluorobenzoic acid] reads 250 nM; that for `COc1ccc(-c2noc(C34CCC(OCc5c(-c6c(Cl)cncc6Cl)noc5C5CC5)(CC3)CC4)n2)cc1C(=O)O` [Example 69, 5-(5-(4-((5-Cyclopropyl-3-(3,5-dichloropyridin-4-yl)isoxazol-4-yl)methoxy)bicyclo[2.2.2]octan-1-yl)-1,2,4-oxadiazol-3-yl)-2-methoxybenzoic acid], 56 nM. The value for `Cn1nc(-c2nc(C34CCC(OCc5c(-c6c(Cl)cccc6Cl)noc5C5CC5)(CC3)CC4)no2)cc1C(=O)O` [Example 70, 3-(3-(4-((5-Cyclopropyl-3-(2,6-dichlorophenyl)isoxazol-4-yl)methoxy)bicyclo[2.2.2]octan-1-yl)-1,2,4-oxadiazol-5-yl)-1-methyl-1H-pyrazole-5-carboxylic acid] was 430 nM.

With `O=C(O)c1cccc(-c2noc(C34CCC(OCc5c(-c6c(Cl)cncc6Cl)noc5C5CC5)(CC3)CC4)n2)c1F` [Example 71, 3-(5-(4-((5-Cyclopropyl-3-(3,5-dichloropyridin-4-yl)isoxazol-4-yl)methoxy)bicyclo[2.2.2]octan-1-yl)-1,2,4-oxadiazol-3-yl)-2-fluorobenzoic acid], the midpoint of the response, the EC50, lay at 69 nM. The value for `O=C(O)Cc1noc(C23CCC(OCc4c(-c5c(Cl)cccc5Cl)noc4C4CC4)(CC2)CC3)n1` [Example 72, 2-(5-(4-((5-cyclopropyl-3-(2,6-dichlorophenyl)isoxazol-4-yl)methoxy)bicyclo[2.2.2]octan-1-yl)-1,2,4-oxadiazol-3-yl)acetic acid] was 3100 nM. With `OCc1noc(C23CCC(OCc4c(-c5c(Cl)cccc5Cl)noc4C4CC4)(CC2)CC3)n1` [Example 73, (5-(4-((5-cyclopropyl-3-(2,6-dichlorophenyl)isoxazol-4-yl)methoxy)bicyclo[2.2.2]octan-1-yl)-1,2,4-oxadiazol-3-yl)methanol], a half-maximal effect (EC50) was put at 600 nM. On to `NC(=O)c1noc(C23CCC(OCc4c(-c5c(Cl)cccc5Cl)noc4C4CC4)(CC2)CC3)n1` [Example 74, 5-(4-((5-cyclopropyl-3-(2,6-dichlorophenyl)isoxazol-4-yl)methoxy)bicyclo[2.2.2]octan-1-yl)-1,2,4-oxadiazole-3-carboxamide], for which the EC50 came to 520 nM. The value for `O=C(O)c1cnn(CC23CCC(OCc4c(-c5c(Cl)cccc5Cl)noc4C4CC4)(CC2)CC3)c1` [Example 76, 1-((4-((5-cyclopropyl-3-(2,6-dichlorophenyl)isoxazol-4-yl)methoxy)bicyclo[2.2.2]octan-1-yl)methyl)-1H-pyrazole-4-carboxylic acid] was 290 nM. Compound `O=C(O)c1cccc(OCC23CCC(OCc4c(-c5ccccc5OC(F)(F)F)noc4C4CC4)(CC2)CC3)c1` [Example 77] showed an EC50 of 180 nM. Regarding `O=C(O)c1cc(F)c2nc(OCC34CCC(OCc5c(-c6ccccc6OC(F)(F)F)noc5C5CC5)(CC3)CC4)sc2c1` [Example 79], the response was half-maximal at 130 nM (EC50). The value for `O=C(O)[C@@H]1CCC[C@H](OCC23CCC(OCc4c(-c5ccccc5OC(F)(F)F)noc4C4CC4)(CC2)CC3)C1` [Example 80] was 5100 nM. The result for `O=C(O)[C@@H]1CCC[C@H](OCC23CCC(OCc4c(-c5ccccc5OC(F)(F)F)noc4C4CC4)(CC2)CC3)C1` [Example 81] reads 4700 nM; that for `O=C(O)c1cccc(OCC23CCC(OCc4c(-c5c(Cl)cccc5Cl)noc4C4CC4)(CC2)CC3)c1` [Example 82, 3-((4-((5-cyclopropyl-3-(2,6-dichlorophenyl)isoxazol-4-yl)methoxy)bicyclo[2.2.2]octan-1-yl)methoxy) benzoic acid], 22 nM.

For the compound `O=C(O)c1cc(F)c2nc(OCC34CCC(OCc5c(-c6c(Cl)cccc6Cl)noc5C5CC5)(CC3)CC4)sc2c1` [Example 83, 2-((4-((5-cyclopropyl-3-(2,6-dichlorophenyl)isoxazol-4-yl)methoxy)bicyclo[2.2.2]octan-1-yl)methoxy)-4-fluorobenzo[d]thiazole-6-carboxylic acid], the response was half-maximal at 18 nM (EC50).
